For one test, the system named is MCF-7 cells. In words: Antiproliferative assay, MCF-7 cells, alamar Blue. It is filed as cell-based. The method, then:
MCF-7 cells were obtained from the American Type Culture Collection (ATCC, Rockville, Md.). Exponentially growing cells were plated (96-well plates) in MEM (minimal essential medium) containing NaHCO3, CCD (charcoal-coated dextran)-stripped 10% FCS (fetal calf serum), and glycine. Cultures were incubated at 37° C. for 1 day, then treated with target by replacing the medium with 100 μL MEM containing supplements and target (3 wells at each of 5 concentrations). The relative effect of each concentration was compared to that of β-estradiol (positive control) by the alamar Blue™ assay (Biosource International),in which the dye is reduced by cellular mitochondrial enzymes to a soluble fluorophore with an intensity directly proportional to cell number. After cultures were incubated with target, alamar Blue™ diluted to 20% in MEM was added (100 μL/well) and cells were incubated for about 4 h, until a color change indicated sufficient amounts of reduced dye for quantitation. Relative cell number was evaluated directly from the plates by fluorimetry (560 nm excitation, 590 nm detection) on a Millipore 2300 CytoFluor. The concentration at which 50% effectiveness is seen (EC50) was calculated from statistically significant, reproducible effects. Statistical analysis was performed using JMP software (SAS Institute).
A general note: The colour change of resazurin is a common sign of viable cells or microbes.

The subject of the next test is estrogen receptor. The note with it: cited from earlier work.
[1] abbreviates: concentration 10^-5 (unit not given).
Where [2] appears, read: concentration 10^-6 (unit not given).
[3] abbreviates: concentration 10^-7 (unit not given).
The mark [4] stands for this setting: concentration 10^-8 (unit not given).
[5] abbreviates: concentration 10^-9 (unit not given).

For `COc1cccc(N2N=Cc3cc(O)ccc3B2O)n1` [Compound 15, 1,2-dihydro-1,6-dihydroxy-2-(2-methoxy-6-pyridinyl)-2,3,1-benzodiazaborine], the “% Inhibition” value came out at 62% in the test with MCF-7 cells (setting [1]); 3% with MCF-7 cells (setting [2]); 0% with MCF-7 cells (setting [3]); 0% with MCF-7 cells (setting [4]); 0% with MCF-7 cells (setting [5]).
Take `O=C1OB2c3ccc(O)cc3C=NN2c2ccccc21` [Compound 4, 1,2-dihydro-1,6-dihydroxy-2-(2-carboxyphenyl)-2,3,1-benzodiazaborine lactone]: the “% Inhibition” value in the test on MCF-7 cells (setting [1]) is 13%; in the test on MCF-7 cells (setting [2]) it was 4%; in the test with MCF-7 cells (setting [3]) it was 2%; in the test on MCF-7 cells (setting [4]), 6%; in the test with MCF-7 cells (setting [5]), 0%.
For `CC/C(=C(\c1ccccc1)c1ccc(OCCN(C)C)cc1)c1ccccc1` [tamoxifen, reference compound] the same measures were 95%, 54%, 29%, 5% and 0%.
For `OB1c2ccc(O)cc2C=NN1c1ccccn1` [Compound 11, 1,2-dihydro-1,6-dihydroxy-2-(6-pyridinyl)-2,3,1-benzodiazaborine], in that order: 55%, 10%, 8%, 8% and 5%.
With “Estrone and Estradiol-17β, 3-carboranylmethyl Ethers”, the “affinity for the estrogen receptor” value in the test on estrogen receptor is reported as 0.5.

As usually defined, the % Inhibition is the change of the read-out against control, counted positive when it falls.

These data come from US6248305A, “Boron heterocycle steroid mimics and associated pharmaceutical compositions and methods of use” (SRI International, priority 2000, dated 2001).
